Measured values published in BigSolDB 2.1.

O=C(O)/C=C\C=C/C(=O)O
solubility (mole fraction)
Conditions	in acetic acid	in ethanol	in isopropanol	in water
298.15 K	0.0029	0.0117	0.0101	0.0002
303.15 K	0.0034	0.0139	0.0107	0.0004
308.15 K	0.0039	0.016	0.0124	0.0006
313.15 K	0.0044	0.0184	0.0139	0.0008
318.15 K	0.0052	0.0236	0.0156	0.0014
323.15 K	0.0057	0.0293	0.017	0.0021
328.15 K	0.0065	0.037	0.0204	0.0031
333.15 K	0.0076	0.0478	0.0244	0.005
338.15 K	0.0086	0.0595	0.0274	0.0068
343.15 K	0.01	0.0715	0.0297	0.0106
348.15 K	0.0125	0.0847	0.0342	0.0153
